Data: patent US20230293526A1, “METHOD FOR TREATING CANCER WITH A REVERSE TRANSCRIPTASE INHIBITOR” (PrimeFour Therapeutics, Inc., priority 2020, published 2023)

Columns and labels:
cancer cell lines = experiment: Cancer cell proliferation activity of representative nucleosides, CellTiterGlo 72 h (Example 7, Tables 8 and 9); format: cell-based; conditions: 72 h
Method in brief: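 Percent viability was set against 0.1% DMSO (100%) and 10 μM staurosporine (0%), with signal from CellTiterGlo luminescence. Dose-response treatment began one day after seeding and lasted 72 h at 37° C under 5% or 10% CO2, with 0.1% final DMSO.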

human LINE-1 = experiment: Human LINE-1 (L1) retrotransposition dual-luciferase reporter assay in HeLa cells; format: cell-based; conditions: Homo sapiens, HeLa, 72 h, read-out: Human LINE-1 IC50 (Human L1 activity inhibition)
Method in brief: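 Compound dilution series (final DMSO 0.2%) added right after transfecting HeLa cells with the pYX017 L1 dual-luciferase reporter; 72 h culture at 37 °C, 5% CO2, triplicates. IC50 fitted by non-linear logistic regression to firefly-to-Renilla luminescence ratio (×10,000).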

For C#C[C@]1(CO)O[C@@H](n2cc(F)c(N)nc2=O)C[C@@H]1O [compound 9], which IC50 (cancer cell lines; 72 h, 5637, bladder) is on record?
Its IC50 is 0.81 µM.

What about the IC50 (cancer cell lines; CLS439, bladder) of the same compound?
The IC50 was > 50 µM.

What about the IC50 (cancer cell lines; HS729, muscle) of the same compound?
Its IC50 is > 50 µM.

What about the IC50 (cancer cell lines; J82, bladder) of the same compound?
The IC50 was 1.16 µM.

And the IC50 (cancer cell lines; JAR, placenta)?
Its IC50 is 7.25 µM.

And the IC50 (cancer cell lines; MT3, breast)?
The IC50 was 1.46 µM.

And the IC50 (cancer cell lines; PC3, prostate)?
The IC50 was 6.33 µM.

And the IC50 (cancer cell lines; RD, muscle)?
Its IC50 is 4.22 µM.

And the IC50 (cancer cell lines; T24, bladder)?
Its IC50 is 3.76 µM.

And the IC50 (cancer cell lines; Homo sapiens, 22Rv1, 72 h, 22RV1, prostate)?
Its IC50 is 0.55 µM.

And the IC50 (cancer cell lines; Homo sapiens, 786-0, 72 h, 786O, kidney)?
Its IC50 is 3.54 µM.

What about the IC50 (cancer cell lines; Homo sapiens, A204, 72 h, A204, muscle) of the same compound?
The IC50 was 9.82 µM.

What about the IC50 (cancer cell lines; Homo sapiens, A549, 72 h, A549, lung) of the same compound?
The IC50 was 1.24 µM.

What about the IC50 (cancer cell lines; Homo sapiens, A673, 72 h, A673, bone) of the same compound?
Its IC50 is 1.96 µM.

And the IC50 (cancer cell lines; Homo sapiens, A2780, 72 h, A2780, ovary)?
Its IC50 is 4.18 µM.

What about the IC50 (cancer cell lines; Homo sapiens, A-375, 72 h, A375, skin) of the same compound?
The IC50 was > 50 µM.

And the IC50 (cancer cell lines; Homo sapiens, A-431, 72 h, A431, skin)?
Its IC50 is 0.11 µM.

What about the IC50 (cancer cell lines; Homo sapiens, ACHN, kidney) of the same compound?
The IC50 was 1.05 µM.

And the IC50 (cancer cell lines; Homo sapiens, ASPC1, 72 h, ASPC1, pancreas)?
Its IC50 is 2.58 µM.

And the IC50 (cancer cell lines; Homo sapiens, BT-20, 72 h, BT20, breast)?
The IC50 was > 50 µM.

And the IC50 (cancer cell lines; Homo sapiens, BXPC-3, 72 h, BXPC3, pancreas)?
The IC50 was 0.23 µM.

And the IC50 (cancer cell lines; Homo sapiens, C-33-A, C33A, endometrial)?
Its IC50 is 4.56 µM.

And the IC50 (cancer cell lines; Homo sapiens, CAKI-1, 72 h, CAKI1, kidney)?
Its IC50 is > 50 µM.

What about the IC50 (cancer cell lines; Homo sapiens, COLO 205, 72 h, COLO205, colon) of the same compound?
Its IC50 is 0.91 µM.

And the IC50 (cancer cell lines; Homo sapiens, COLO-678, 72 h, COLO678, colon)?
The IC50 was > 50 µM.

What about the IC50 (cancer cell lines; Homo sapiens, Ca-Ski, CASKI, endometrial) of the same compound?
Its IC50 is 11.6 µM.

And the IC50 (cancer cell lines; Homo sapiens, Caco-2, 72 h, CACO2, colon)?
Its IC50 is > 50 µM.

And the IC50 (cancer cell lines; Homo sapiens, Calu-6, 72 h, CALU6, lung)?
Its IC50 is > 50 µM.

What about the IC50 (cancer cell lines; Homo sapiens, DLD-1, 72 h, DLD1, colon) of the same compound?
The IC50 was 4.35 µM.

And the IC50 (cancer cell lines; Homo sapiens, DU-145, 72 h, DU145, prostate)?
Its IC50 is 2.42 µM.

And the IC50 (cancer cell lines; Homo sapiens, EFO-21, 72 h, EFO21, ovary)?
The IC50 was 2.41 µM.

What about the IC50 (cancer cell lines; Homo sapiens, EJ-28, 72 h, EJ28, bladder) of the same compound?
The IC50 was 2.21 µM.

What about the IC50 (cancer cell lines; Homo sapiens, Granta-519, 72 h, GRANTA-519, hematological) of the same compound?
Its IC50 is 3.24 µM.

And the IC50 (cancer cell lines; Homo sapiens, HCT-15, 72 h, HCT15, colon)?
The IC50 was 4.08 µM.

And the IC50 (cancer cell lines; Homo sapiens, HCT-116, 72 h, HCT116, colon)?
Its IC50 is > 50 µM.

And the IC50 (cancer cell lines; Homo sapiens, HEK293, 72 h, HEK293, kidney)?
The IC50 was 7.63 µM.

What about the IC50 (cancer cell lines; Homo sapiens, HL-60, 72 h, HL-60, hematological) of the same compound?
The IC50 was 4.04 µM.

And the IC50 (cancer cell lines; Homo sapiens, HT-29, 72 h, HT29, colon)?
The IC50 was 1.47 µM.

What about the IC50 (cancer cell lines; Homo sapiens, HT-1080, 72 h, HT1080, connective tissue) of the same compound?
Its IC50 is 2.88 µM.

What about the IC50 (cancer cell lines; Homo sapiens, HeLa, endometrial) of the same compound?
The IC50 was > 50 µM.

And the IC50 (cancer cell lines; Homo sapiens, HepG2, 72 h, HEPG2, liver)?
Its IC50 is 1.6 µM.

What about the IC50 (cancer cell lines; Homo sapiens, Hs-578T, HS578T, breast) of the same compound?
The IC50 was > 50 µM.

And the IC50 (cancer cell lines; Homo sapiens, IGROV-1, 72 h, IGROV1, ovary)?
Its IC50 is 5.01 µM.

What about the IC50 (cancer cell lines; Homo sapiens, IMR-90, 72 h, IMR90, lung) of the same compound?
Its IC50 is > 50 µM.

And the IC50 (cancer cell lines; Homo sapiens, JEG-3, 72 h, JEG3, placenta)?
The IC50 was 0.99 µM.

And the IC50 (cancer cell lines; Homo sapiens, JIMT-1, 72 h, JIMT1, breast)?
Its IC50 is 4.47 µM.

What about the IC50 (cancer cell lines; Homo sapiens, K562, 72 h, K-562, hematological) of the same compound?
The IC50 was 4.38 µM.

And the IC50 (cancer cell lines; Homo sapiens, Kasumi 1, 72 h, KASUMI-1, hematological)?
The IC50 was > 50 µM.

And the IC50 (cancer cell lines; Homo sapiens, L-363, 72 h, L-363, hematological)?
Its IC50 is 1.96 µM.

What about the IC50 (cancer cell lines; Homo sapiens, LoVo, colon) of the same compound?
Its IC50 is 1.62 µM.

What about the IC50 (cancer cell lines; Homo sapiens, MCF7, 72 h, MCF7, breast) of the same compound?
The IC50 was 1.19 µM.

And the IC50 (cancer cell lines; Homo sapiens, MDA-MB-231, 72 h, MDAMB231, breast)?
Its IC50 is > 50 µM.

And the IC50 (cancer cell lines; Homo sapiens, MDA-MB-435, 72 h, MDAMB435, skin)?
Its IC50 is 4.39 µM.

And the IC50 (cancer cell lines; Homo sapiens, MDA-MB-436, 72 h, MDAMB436, breast)?
Its IC50 is 1.37 µM.

What about the IC50 (cancer cell lines; Homo sapiens, MDA-MB-468, 72 h, MDAMB468, breast) of the same compound?
The IC50 was > 50 µM.

And the IC50 (cancer cell lines; Homo sapiens, MG-63, 72 h, MG63, bone)?
The IC50 was 2.44 µM.

What about the IC50 (cancer cell lines; Homo sapiens, MHH-ES-1, 72 h, MHHES1, bone) of the same compound?
The IC50 was 1.53 µM.

And the IC50 (cancer cell lines; Homo sapiens, MIA PaCa-2, 72 h, MIAPACA2, pancreas)?
The IC50 was 3.75 µM.

What about the IC50 (cancer cell lines; Homo sapiens, MINO, hematological) of the same compound?
The IC50 was 3.74 µM.

What about the IC50 (cancer cell lines; Homo sapiens, MV4-11, 72 h, MV4-11, hematological) of the same compound?
The IC50 was 0.39 µM.

What about the IC50 (cancer cell lines; Homo sapiens, NCI-H23, 72 h, NCI-H23, lung) of the same compound?
The IC50 was 2.42 µM.

And the IC50 (cancer cell lines; Homo sapiens, NCI-H82, 72 h, NCIH82, lung)?
Its IC50 is 2.35 µM.

What about the IC50 (cancer cell lines; Homo sapiens, NCI-H292, 72 h, NCIH292, lung) of the same compound?
Its IC50 is > 50 µM.

What about the IC50 (cancer cell lines; Homo sapiens, NCI-H460, 72 h, NCIH460, ung) of the same compound?
The IC50 was 1.06 µM.

And the IC50 (cancer cell lines; Homo sapiens, OVCAR-3, 72 h, OVCAR3, ovary)?
Its IC50 is 5.6 µM.

And the IC50 (cancer cell lines; Homo sapiens, OVCAR-4, 72 h, OVCAR4, ovary)?
The IC50 was > 50 µM.

What about the IC50 (cancer cell lines; Homo sapiens, PANC-1, 72 h, PANC1, pancreas) of the same compound?
Its IC50 is 6.4 µM.

And the IC50 (cancer cell lines; Homo sapiens, PLC-PRF-5, 72 h, PLCPRF5, liver)?
Its IC50 is 3.24 µM.

What about the IC50 (cancer cell lines; Homo sapiens, Panc1005, 72 h, PANC1005, pancreas) of the same compound?
The IC50 was 16.4 µM.

And the IC50 (cancer cell lines; Homo sapiens, Ramos, hematological)?
Its IC50 is 5.3 µM.

And the IC50 (cancer cell lines; Homo sapiens, SAOS-2, 72 h, SAOS2, bone)?
The IC50 was 4.72 µM.

What about the IC50 (cancer cell lines; Homo sapiens, SF-268, 72 h, SF268, brain) of the same compound?
Its IC50 is 1.65 µM.

And the IC50 (cancer cell lines; Homo sapiens, SF-295, 72 h, SF295, brain)?
Its IC50 is 4.49 µM.

And the IC50 (cancer cell lines; Homo sapiens, SK-BR-3, 72 h, SKBR3, breast)?
The IC50 was 0.12 µM.

And the IC50 (cancer cell lines; Homo sapiens, SK-HEP1, 72 h, SKHEP1, liver)?
The IC50 was 1.29 µM.

What about the IC50 (cancer cell lines; Homo sapiens, SK-LMS-1, 72 h, SKLMS1, uterus) of the same compound?
The IC50 was 5.61 µM.

What about the IC50 (cancer cell lines; Homo sapiens, SK-MEL-5, 72 h, SKMEL5, skin) of the same compound?
Its IC50 is 5.52 µM.

What about the IC50 (cancer cell lines; Homo sapiens, SK-MEL-28, 72 h, SKMEL28, skin) of the same compound?
Its IC50 is > 50 µM.

What about the IC50 (cancer cell lines; Homo sapiens, SK-N-AS, SKNAS, brain) of the same compound?
Its IC50 is > 50 µM.

And the IC50 (cancer cell lines; Homo sapiens, SK-N-SH, SKNSH, brain)?
The IC50 was 2.44 µM.

What about the IC50 (cancer cell lines; Homo sapiens, SK-OV-3, 72 h, SKOV3, ovary) of the same compound?
Its IC50 is 1.64 µM.

And the IC50 (cancer cell lines; Homo sapiens, SNB-75, 72 h, SNB75, brain)?
The IC50 was > 50 µM.

What about the IC50 (cancer cell lines; Homo sapiens, SU-DHL10, 72 h, SU-DHL-10, hematological) of the same compound?
Its IC50 is 3.15 µM.

What about the IC50 (cancer cell lines; Homo sapiens, SU-DHL-6, 72 h, SU-DHL-6, hematological) of the same compound?
The IC50 was 4.69 µM.

And the IC50 (cancer cell lines; Homo sapiens, SW-620, 72 h, SW620, colon)?
The IC50 was 0.91 µM.

And the IC50 (cancer cell lines; Homo sapiens, TE-671, 72 h, TE671, muscle)?
The IC50 was 5.9 µM.

What about the IC50 (cancer cell lines; Homo sapiens, THP-1, 72 h, THP-1, hematological) of the same compound?
The IC50 was 1.12 µM.

What about the IC50 (cancer cell lines; Homo sapiens, U2OS, bone) of the same compound?
The IC50 was > 50 µM.

And the IC50 (cancer cell lines; Homo sapiens, U-87 MG, U87MG, brain)?
Its IC50 is 11.9 µM.

What about the IC50 (cancer cell lines; Homo sapiens, UMUC3, 72 h, UMUC3, bladder) of the same compound?
Its IC50 is 3.39 µM.

What about the IC50 (cancer cell lines; Homo sapiens, UO-31, 72 h, UO31, kidney) of the same compound?
The IC50 was > 50 µM.

And the IC50 (cancer cell lines; Homo sapiens, WSU-NHL, hematological)?
The IC50 was 3.53 µM.

And the IC50 (cancer cell lines; NCI-H358M, NCIH358M, lung)?
Its IC50 is > 50 µM.

And the IC50 (cancer cell lines; PBMC, hematological)?
The IC50 was > 50 µM.

What about the IC50 (cancer cell lines; RD-ES, RDES, bone) of the same compound?
The IC50 was 3.93 µM.

And the IC50 (human LINE-1)?
Its IC50 is 0.021 µM.
